What all share (test): DPP Inhibition Assay
Common to all, as to details: pH 7.5; 22 °C

One experiment has as its target Dipeptidyl peptidase 9 (Homo sapiens, UniProt Q86TI2). Here is the method: (§1) For each concentration of inhibitor or DMSO control, the steady state rates were used to fit a rectangular hyperbola, from which Km and Vmax values were determined by nonlinear regression analysis. The ratio of the Km/Vmax vs inhibitor concentration was plotted and the negative X-intercept, as calculated by linear regression, was the competitive Ki.

The target in a further experiment is Dipeptidyl peptidase 8 (Homo sapiens, UniProt Q6V1X1). On the procedure: as §1
For a further experiment, the target named is Dipeptidyl peptidase 4 (Homo sapiens, UniProt P27487). On the procedure: as §1
Sequence of Dipeptidyl peptidase 4 (P27487 whole entry): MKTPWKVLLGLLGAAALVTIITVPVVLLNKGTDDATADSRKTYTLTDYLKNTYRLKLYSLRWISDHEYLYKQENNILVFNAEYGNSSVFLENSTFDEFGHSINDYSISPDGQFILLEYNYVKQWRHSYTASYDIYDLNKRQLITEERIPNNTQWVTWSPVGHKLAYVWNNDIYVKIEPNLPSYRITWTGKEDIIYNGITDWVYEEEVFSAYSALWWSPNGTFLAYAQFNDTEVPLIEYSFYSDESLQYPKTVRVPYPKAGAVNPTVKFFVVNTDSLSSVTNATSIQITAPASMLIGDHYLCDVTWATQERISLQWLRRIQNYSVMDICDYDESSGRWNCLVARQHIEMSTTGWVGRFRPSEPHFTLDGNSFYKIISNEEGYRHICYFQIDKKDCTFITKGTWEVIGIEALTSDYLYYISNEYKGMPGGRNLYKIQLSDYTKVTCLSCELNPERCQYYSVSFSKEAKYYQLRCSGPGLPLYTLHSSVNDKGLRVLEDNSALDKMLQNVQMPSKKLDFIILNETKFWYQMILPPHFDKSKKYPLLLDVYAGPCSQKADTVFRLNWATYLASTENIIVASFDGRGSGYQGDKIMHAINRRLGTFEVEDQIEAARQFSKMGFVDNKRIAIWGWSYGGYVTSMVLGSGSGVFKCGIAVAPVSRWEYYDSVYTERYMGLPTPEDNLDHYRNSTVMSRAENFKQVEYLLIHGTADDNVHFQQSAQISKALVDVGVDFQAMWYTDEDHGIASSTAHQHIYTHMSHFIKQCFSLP

Sequence of Dipeptidyl peptidase 9 (Q86TI2 whole entry): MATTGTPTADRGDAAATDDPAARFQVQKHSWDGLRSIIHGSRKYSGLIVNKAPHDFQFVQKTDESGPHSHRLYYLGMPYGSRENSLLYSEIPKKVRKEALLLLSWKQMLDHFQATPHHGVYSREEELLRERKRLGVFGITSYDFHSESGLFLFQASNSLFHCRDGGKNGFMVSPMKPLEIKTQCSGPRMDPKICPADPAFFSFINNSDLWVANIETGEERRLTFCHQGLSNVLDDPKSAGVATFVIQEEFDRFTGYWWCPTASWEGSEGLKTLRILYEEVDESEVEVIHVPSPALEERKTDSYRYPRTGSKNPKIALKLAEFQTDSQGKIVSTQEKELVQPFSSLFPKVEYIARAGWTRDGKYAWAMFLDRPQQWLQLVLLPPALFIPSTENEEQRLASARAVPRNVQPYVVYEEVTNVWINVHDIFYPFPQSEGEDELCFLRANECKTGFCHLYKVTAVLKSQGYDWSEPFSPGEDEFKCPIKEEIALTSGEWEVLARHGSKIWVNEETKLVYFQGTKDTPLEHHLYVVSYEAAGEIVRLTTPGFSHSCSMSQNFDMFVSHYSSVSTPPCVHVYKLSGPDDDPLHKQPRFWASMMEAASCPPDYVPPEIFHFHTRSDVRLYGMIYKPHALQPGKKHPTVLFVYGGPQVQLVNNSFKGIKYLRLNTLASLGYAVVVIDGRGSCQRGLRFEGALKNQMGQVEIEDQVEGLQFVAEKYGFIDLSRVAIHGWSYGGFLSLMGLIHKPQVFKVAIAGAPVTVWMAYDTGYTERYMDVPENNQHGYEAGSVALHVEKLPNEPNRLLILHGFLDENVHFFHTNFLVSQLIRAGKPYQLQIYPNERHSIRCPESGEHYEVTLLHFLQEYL
Sequence of Dipeptidyl peptidase 8 (Q6V1X1 whole entry): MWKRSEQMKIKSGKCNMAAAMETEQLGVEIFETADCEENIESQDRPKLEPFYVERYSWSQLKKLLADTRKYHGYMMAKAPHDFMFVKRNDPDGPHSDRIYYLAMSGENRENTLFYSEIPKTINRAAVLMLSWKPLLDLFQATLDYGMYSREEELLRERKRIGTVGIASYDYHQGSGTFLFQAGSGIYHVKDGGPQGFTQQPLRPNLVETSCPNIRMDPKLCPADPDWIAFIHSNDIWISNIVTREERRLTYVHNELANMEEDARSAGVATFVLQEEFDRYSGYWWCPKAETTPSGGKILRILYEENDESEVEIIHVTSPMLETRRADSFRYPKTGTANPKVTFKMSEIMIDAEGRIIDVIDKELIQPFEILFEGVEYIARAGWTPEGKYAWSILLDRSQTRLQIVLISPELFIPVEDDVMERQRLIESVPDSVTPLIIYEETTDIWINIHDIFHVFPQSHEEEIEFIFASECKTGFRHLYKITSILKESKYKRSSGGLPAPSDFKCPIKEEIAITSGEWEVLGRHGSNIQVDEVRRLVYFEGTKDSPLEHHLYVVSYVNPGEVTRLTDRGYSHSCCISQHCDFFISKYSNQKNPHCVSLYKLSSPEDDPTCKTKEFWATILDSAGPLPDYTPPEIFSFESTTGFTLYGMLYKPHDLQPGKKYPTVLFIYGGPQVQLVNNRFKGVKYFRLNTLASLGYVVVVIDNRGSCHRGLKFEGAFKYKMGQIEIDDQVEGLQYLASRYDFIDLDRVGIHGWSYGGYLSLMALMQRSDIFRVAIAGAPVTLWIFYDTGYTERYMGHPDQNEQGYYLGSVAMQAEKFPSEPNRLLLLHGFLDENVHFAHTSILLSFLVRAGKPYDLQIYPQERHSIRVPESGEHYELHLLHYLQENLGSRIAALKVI

Broadly, the Ki is a dissociation constant, usually derived from enzyme kinetics or from competition with a known ligand. In the case of `N[C@H]1CC(C(=O)N2CCn3c(nnc3C(F)(F)F)C2)=CC[C@@H]1c1cc(F)c(F)cc1F` [(1S,6R)-3-{[3-(trifluoromethyl)-5H,6H,7H,8H-[1,2,4]triazolo[3,4-a]pyrazin-7-yl]carbonyl}-6-(2,4,5-trifluorophenyl)cyclohex-3-en-1-aminium; 2,2,2-trifluoroacetate], the inhibition constant (Ki) on Dipeptidyl peptidase 9 is 4 µM; at Dipeptidyl peptidase 8 it was more than 30 µM; on Dipeptidyl peptidase 4, 0.0013 µM.
Compound `N[C@H]1CC(c2ccccc2)=CC[C@@H]1c1ccccc1Cl` [(1S,6R)-6-(2-chlorophenyl)-3-phenylcyclohex-3-en-1-aminium; 2,2,2-trifluoroacetate] gave an inhibitory constant (Ki) at Dipeptidyl peptidase 4 of less than 0.14 µM.

Values taken from BindingDB's records for doi:10.1021/jm060955d (Abbott Laboratories, 2006).
